Test results published in ChEMBL document CHEMBL4715724, “Novel 5-substituted-2-anilinoquinolines with 3-(morpholino or 4-methylpiperazin-1-yl)propoxy moiety as broad spectrum antiproliferative agents: Synthesis, cell based assays and kinase screening” (Bioorg Med Chem Lett, 2016).

Columns and labels:
[1] = system: U-251; assay: cells; type: functional; settings: Homo sapiens, time 48 hrs
Description: Growth inhibition of human U-251 cells incubated for 48 hrs by sulforhodamine B assay

[2] = system: K562; assay: cells; type: functional; settings: Homo sapiens, time 48 hrs
Description: Growth inhibition of human K562 cells incubated for 48 hrs by sulforhodamine B assay

[3] = system: OVCAR-8; assay: cells; type: functional; settings: Homo sapiens, time 48 hrs
Description: Growth inhibition of human OVCAR-8 cells incubated for 48 hrs by sulforhodamine B assay

[4] = system: Panel breast (Carcinoma cell lines); assay: cells; type: functional; settings: Homo sapiens, time 48 hrs
Description: Growth inhibition of human Panel breast (Carcinoma cell lines) incubated for 48 hrs by sulforhodamine B assay

[5] = system: IGROV-1; assay: cells; type: functional; settings: Homo sapiens, time 48 hrs
Description: Growth inhibition of human IGROV-1 cells incubated for 48 hrs by sulforhodamine B assay

[6] = system: LOX IMVI; assay: cells; type: functional; settings: Homo sapiens, time 48 hrs
Description: Growth inhibition of human LOX IMVI cells incubated for 48 hrs by sulforhodamine B assay

[7] = system: OVCAR-3; assay: cells; type: functional; settings: Homo sapiens, time 48 hrs
Description: Growth inhibition of human OVCAR-3 cells incubated for 48 hrs by sulforhodamine B assay

[8] = system: SK-MEL-28; assay: cells; type: functional; settings: Homo sapiens, time 48 hrs
Description: Growth inhibition of human SK-MEL-28 cells incubated for 48 hrs by sulforhodamine B assay

[9] = system: CCRF-CEM; assay: cells; type: functional; settings: Homo sapiens, time 48 hrs
Description: Growth inhibition of human CCRF-CEM cells incubated for 48 hrs by sulforhodamine B assay

[10] = Cytotoxicity against human HFF-1 cells assessed as cell growth inhibition at 1 uM by MTT assay relative to control; type: cell-based; settings: read-out: GI
[11] = system: Panel melanoma (Carcinoma cell lines); assay: cells; type: functional; settings: Homo sapiens, time 48 hrs
Description: Growth inhibition of human Panel melanoma (Carcinoma cell lines) incubated for 48 hrs by sulforhodamine B assay

[12] = system: Hs-578T; assay: cells; type: functional; settings: Homo sapiens, time 48 hrs
Description: Growth inhibition of human Hs-578T cells incubated for 48 hrs by sulforhodamine B assay

[13] = system: UACC-62; assay: cells; type: functional; settings: Homo sapiens, time 48 hrs
Description: Growth inhibition of human UACC-62 cells incubated for 48 hrs by sulforhodamine B assay

[14] = system: HOP-62; assay: cells; type: functional; settings: Homo sapiens, time 48 hrs
Description: Growth inhibition of human HOP-62 cells incubated for 48 hrs by sulforhodamine B assay

[15] = system: HCT-116; assay: cells; type: functional; settings: Homo sapiens, time 48 hrs
Description: Growth inhibition of human HCT-116 cells incubated for 48 hrs by sulforhodamine B assay

[16] = system: UO-31; assay: cells; type: functional; settings: Homo sapiens, time 48 hrs
Description: Growth inhibition of human UO-31 cells incubated for 48 hrs by sulforhodamine B assay

[17] = system: NCI-H23; assay: cells; type: functional; settings: Homo sapiens, time 48 hrs
Description: Growth inhibition of human NCI-H23 cells incubated for 48 hrs by sulforhodamine B assay

[18] = system: Panel NCI-60 (60 carcinoma cell lines); assay: cells; type: functional; settings: Homo sapiens, time 48 hrs
Description: Growth inhibition of human Panel NCI-60 (60 carcinoma cell lines) incubated for 48 hrs by sulforhodamine B assay

[19] = system: SF-295; assay: cells; type: functional; settings: Homo sapiens, time 48 hrs
Description: Growth inhibition of human SF-295 cells incubated for 48 hrs by sulforhodamine B assay

[20] = system: Panel renal (Carcinoma cell lines); assay: cells; type: functional; settings: Homo sapiens, time 48 hrs
Description: Growth inhibition of human Panel renal (Carcinoma cell lines) incubated for 48 hrs by sulforhodamine B assay

[21] = system: LOX IMVI; assay: Growth inhibition of human LOX IMVI cells assessed as growth percentage at 10 uM measured after 48 hrs by sulforhodamine B assay relative to control; type: functional; settings: read-out: Activity
[22] = system: HT-29; assay: cells; type: functional; settings: Homo sapiens, time 48 hrs
Description: Growth inhibition of human HT-29 cells incubated for 48 hrs by sulforhodamine B assay

[23] = system: Panel colon (Carcinoma cell lines); assay: cells; type: functional; settings: Homo sapiens, time 48 hrs
Description: Growth inhibition of human Panel colon (Carcinoma cell lines) incubated for 48 hrs by sulforhodamine B assay

[24] = system: TK-10; assay: cells; type: functional; settings: Homo sapiens, time 48 hrs
Description: Growth inhibition of human TK-10 cells incubated for 48 hrs by sulforhodamine B assay

[25] = system: RXF 393; assay: cells; type: functional; settings: Homo sapiens, time 48 hrs
Description: Growth inhibition of human RXF 393 cells incubated for 48 hrs by sulforhodamine B assay

[26] = system: NCI-H460; assay: cells; type: functional; settings: Homo sapiens, time 48 hrs
Description: Growth inhibition of human NCI-H460 cells incubated for 48 hrs by sulforhodamine B assay

[27] = system: A549; assay: cells; type: functional; settings: Homo sapiens, time 48 hrs
Description: Growth inhibition of human A549/ATCC cells incubated for 48 hrs by sulforhodamine B assay

[28] = Cytotoxicity against human HFF-1 cells assessed as cell growth inhibition at 0.1 uM by MTT assay relative to control; type: cell-based; settings: read-out: GI
[29] = Cytotoxicity against human HFF-1 cells assessed as cell growth inhibition by MTT assay; type: cell-based
[30] = system: MCF7; assay: cells; type: functional; settings: Homo sapiens, time 48 hrs
Description: Growth inhibition of human MCF7 cells incubated for 48 hrs by sulforhodamine B assay

[31] = system: Panel leukemia (Carcinoma cell lines); assay: cells; type: functional; settings: Homo sapiens, time 48 hrs
Description: Growth inhibition of human Panel leukemia (Carcinoma cell lines) incubated for 48 hrs by sulforhodamine B assay

[32] = system: NCI-H522; assay: cells; type: functional; settings: Homo sapiens, time 48 hrs
Description: Growth inhibition of human NCI-H522 cells incubated for 48 hrs by sulforhodamine B assay

[33] = system: KM12; assay: cells; type: functional; settings: Homo sapiens, time 48 hrs
Description: Growth inhibition of human KM12 cells incubated for 48 hrs by sulforhodamine B assay

[34] = system: MDA-MB-231; assay: cells; type: functional; settings: Homo sapiens, time 48 hrs
Description: Growth inhibition of human MDA-MB-231/ATCC cells incubated for 48 hrs by sulforhodamine B assay

[35] = system: MDA-MB-468; assay: cells; type: functional; settings: Homo sapiens, time 48 hrs
Description: Growth inhibition of human MDA-MB-468 cells incubated for 48 hrs by sulforhodamine B assay

[36] = system: Panel ovarian (Carcinoma cell lines); assay: cells; type: functional; settings: Homo sapiens, time 48 hrs
Description: Growth inhibition of human Panel ovarian (Carcinoma cell lines) incubated for 48 hrs by sulforhodamine B assay

[37] = system: HOP-92; assay: cells; type: functional; settings: Homo sapiens, time 48 hrs
Description: Growth inhibition of human HOP-92 cells incubated for 48 hrs by sulforhodamine B assay

[38] = system: OVCAR-4; assay: cells; type: functional; settings: Homo sapiens, time 48 hrs
Description: Growth inhibition of human OVCAR-4 cells incubated for 48 hrs by sulforhodamine B assay

[39] = system: Panel CNS (Carcinoma cell lines); assay: cells; type: functional; settings: Homo sapiens, time 48 hrs
Description: Growth inhibition of human Panel CNS (Carcinoma cell lines) incubated for 48 hrs by sulforhodamine B assay

[40] = system: PC-3; assay: cells; type: functional; settings: Homo sapiens, time 48 hrs
Description: Growth inhibition of human PC-3 cells incubated for 48 hrs by sulforhodamine B assay

[41] = system: Panel prostate (Carcinoma cell lines); assay: cells; type: functional; settings: Homo sapiens, time 48 hrs
Description: Growth inhibition of human Panel prostate (Carcinoma cell lines) incubated for 48 hrs by sulforhodamine B assay

[42] = system: NCI-H226; assay: cells; type: functional; settings: Homo sapiens, time 48 hrs
Description: Growth inhibition of human NCI-H226 cells incubated for 48 hrs by sulforhodamine B assay

[43] = system: HCT-15; assay: cells; type: functional; settings: Homo sapiens, time 48 hrs
Description: Growth inhibition of human HCT-15 cells incubated for 48 hrs by sulforhodamine B assay

[44] = system: NCI-H322M; assay: cells; type: functional; settings: Homo sapiens, time 48 hrs
Description: Growth inhibition of human NCI-H322M cells incubated for 48 hrs by sulforhodamine B assay

[45] = Cytotoxicity against human HFF-1 cells assessed as cell growth inhibition at 10 uM by MTT assay relative to control; type: cell-based; settings: read-out: GI
[46] = cells; type: functional; settings: Homo sapiens, Non-small cell lung cancer cell line; time 48 hrs
Description: Growth inhibition of human Non-small cell lung cancer cell line incubated for 48 hrs by sulforhodamine B assay

[47] = system: A498; assay: cells; type: functional; settings: Homo sapiens, time 48 hrs
Description: Growth inhibition of human A498 cells incubated for 48 hrs by sulforhodamine B assay

[48] = system: UACC-257; assay: cells; type: functional; settings: Homo sapiens, time 48 hrs
Description: Growth inhibition of human UACC-257 cells incubated for 48 hrs by sulforhodamine B assay

[49] = system: M14; assay: Growth inhibition of human M14 cells assessed as growth percentage at 10 uM measured after 48 hrs by sulforhodamine B assay relative to control; type: functional; settings: read-out: Activity
[50] = read-out: LC50 (the source's name)

## CN1CCN(CCCOc2cccc3nc(Nc4cc(Cl)cc(Cl)c4)ccc23)CC1
[1]
  GI50: 1720 nM
[2]
  GI50: 1660 nM
[3]
  GI50: 1940 nM
[4]
  GI50: 2060 nM
  TGI: 5670 nM
[4]; [50]
  CC50: 21800 nM
[5]
  GI50: 1680 nM
[6]
  GI50: 1580 nM
[7]
  GI50: 1680 nM
[8]
  GI50: 1670 nM
[9]
  GI50: 1780 nM
[10]
  inhibition at 1 µM: 12%
[11]
  GI50: 1800 nM
  LC50: 6620 nM
  TGI: 3430 nM
[12]
  GI50: 2500 nM
[13]
  GI50: 1950 nM
[14]
  GI50: 1370 nM
[15]
  GI50: 1940 nM
[16]
  GI50: 1490 nM
[17]
  GI50: 1720 nM
[18]
  GI50: 1770 nM
  TGI: 3720 nM
[18]; [50]
  CC50: 8320 nM
[19]
  GI50: 1720 nM
[20]
  GI50: 2070 nM
  LC50 (lethal concentration 50%): 17100 nM
  TGI: 5560 nM
[21]
  growth at 10 µM: -5.27%
[22]
  GI50: 1410 nM
[23]
  GI50: 1680 nM
  TGI: 3190 nM
[23]; [50]
  CC50: 6100 nM
[24]
  GI50: 1740 nM
[25]
  GI50: 1670 nM
[26]
  GI50: 1840 nM
[27]
  GI50: 1980 nM
[28]
  inhibition at 0.1 µM: 12.5%
[29]
  GI50: > 10000 nM
[30]
  GI50: 1380 nM
[31]
  GI50: 1800 nM
  LC50 (50% lethal concentration): 100000 nM
  TGI: 3960 nM
[32]
  GI50: 1640 nM
[33]
  GI50: 1720 nM
[34]
  GI50: 1570 nM
[35]
  GI50: 1690 nM
[36]
  GI50: 1870 nM
  LC50: 9180 nM
  TGI: 4100 nM
[37]
  GI50: 1590 nM
[38]
  GI50: 2550 nM
[39]
  GI50: 1720 nM
  TGI: 3260 nM
[39]; [50]
  CC50: 6200 nM
[40]
  GI50: 1760 nM
[41]
  GI50: 1730 nM
  LC50 (concentration killing 50% of cells): 5960 nM
  TGI: 3210 nM
[42]
  GI50: 1950 nM
[43]
  GI50: 1420 nM
[44]
  GI50: 1560 nM
[45]
  inhibition at 10 µM: 13.3%
[46]
  GI50: 1710 nM
  LC50 (50% lethal concentration): 8150 nM
  TGI: 3510 nM
[47]
  GI50: 1780 nM
[48]
  GI50: 1970 nM

## CC(C)c1ccc(Nc2ccc3c(OCCCN4CCOCC4)cccc3n2)cc1
[49]
  growth at 10 µM: 59.8%
